“And” between values parts separate entries of the source, which are not always exact repeats. Equal entries are not always repeated. Structures can show the parent of a compound that is named as a salt. Where two headings read alike, the source gives them in different places.
What was measured:
[1] = tested on: spontaneous motility; test: Test 3: spontaneous motility; assay type: in vivo; details: for TI (Test 3), LD/ED quotient: LD50 / ED of Test 3; for minimal effective dose: Mus musculus, ip
Protocol: 3. Lowest i.p. dose which still increases or decreases the spontaneous motility of the mice.
(§1) The acute toxicity data are determined in mice. Tests 2-6 are also carried out in mice. The doses are expressed in micromole/kg. The therapeutical index (TI) is the LD/ED quotient.
In Test 3 "+=motility increase" and "-=motility decrease."

[2] = tested on: catalepsy induced by Haloperidol / tetrabenazine; test: Comparison of anti-haloperidol (Test 2) and anti-tetrabenazine (Test 4) activity; assay type: in vivo, mice; details: for Quotient of the ED values of Columns 2 and 4: ED Test 2 (haloperidol) : ED Test 4 (tetrabenazine)
Protocol: (§2) 2. S.c. dose which inhibits the catalepsy induced by a 13 umole/kg dose of Haloperidol, in 50% of the mice.
(§3) 4. S.c. dose which inhibits the catalepsy induced by a 110 umole/kg dose of tetrabenazine, in 50% of the mice.
as §1
On comparing the dopaminerg type anti-haloperidol test and the anti-tetrabenazine activity being characteristic of the antidepressive effect the following can be stated:
The quotient of the ED values of Columns 2 and 4 is the highest for Compound I (55:13=4.2). […] The said quotient is high in the case of Nomifensine (1.6), Compound D (1.8), Compound E (2.7) and Compound F (1.7).

[3] = tested on: ptosis induced by tetrabenazine; test: Test 5: inhibition of tetrabenazine-induced ptosis; assay type: in vivo; details: for TI (Test 5), LD/ED quotient: LD50 / ED of Test 5; for ED50: Mus musculus, sc, read-out: ED, s.c. dose which inhibits the ptosis induced by tetrabenazine in 50% of the mice (Test 5)
Protocol: 5. S.c. dose which inhibits the ptosis induced by a dose of 79 umole/kg of tetrabenazine, in 50% of the mice.
as §1
(§4) Tests 2, 8, 9 and 10 are suitable for the evaluation of the dopaminerg stimulating effect of the test compounds (potential anti-parkinson agent). Tests 4, 5, 6 and 7 give information about the catecholamine-uptake inhibiting effect (potential antidepressive activity).

[4] = Acute toxicity, s.c., LD50; parameters: species or system mice; details: mouse, in vivo, sc, mice, 96 hour observation
Protocol: as §1

[5] = tested on: catalepsy induced by tetrabenazine; test: Test 4: inhibition of tetrabenazine-induced catalepsy; assay type: in vivo; details: for TI (Test 4), LD/ED quotient: LD50 / ED of Test 4; for ED50: Mus musculus, sc, read-out: ED, s.c. dose which inhibits the catalepsy induced by tetrabenazine in 50% of the mice (Test 4)
Protocol: as §3, §1, §4

[6] = tested on: stereotypy; test: Test 8: induction of stereotypy; assay type: in vivo; details: Rattus norvegicus, sc, rats; ">" = inactive in the given dose; read-out: Lowest s.c. dose which still induces stereotypy (Test 8)
Protocol: 8. The lowest s.c. dose which still induces stereotypy, in rats.
(§5) Tests 7-10 are carried out in cats and rats, the doses are expressed in micromole/kg.
as §4

[7] = tested on: decrease of the rectal temperature caused by reserpine; test: Test 6: reserpine-induced decrease of rectal temperature; assay type: in vivo; details: for TI (Test 6), LD/ED quotient: LD50 / ED of Test 6; for minimal effective dose: Mus musculus, sc, read-out: ED, lowest s.c. dose which still hinders the decrease of the rectal temperature caused by reserpine (Test 6)
Protocol: 6. The lowest s.c. dose which still hinders the decrease of the rectal temperature caused by the administration of a 1,6 umole/kg dose of reserpine.
as §1, §4

[8] = tested on: catalepsy induced by Haloperidol; test: Test 2: inhibition of haloperidol-induced catalepsy; assay type: in vivo; details: for TI (Test 2), LD/ED quotient: LD50 / ED of Test 2; for ED50: Mus musculus, sc, read-out: ED, s.c. dose which inhibits the catalepsy induced by Haloperidol in 50% of the mice (Test 2)
Protocol: as §2, §1, §4

[9] = tested on: blood pressure and nictitating membrane; test: Test 7: blood pressure and nictitating membrane effect; assay type: in vivo; details: Felis catus, iv, cats; ">" = inactive in the given dose; read-out: Lowest i.v. dose which still increases the blood pressure and nictitating membrane effect (Test 7)
Protocol: as §5, §4

[10] = tested on: prolactine level; test: Test 10: decrease of prolactine level in ovariectomised rats; assay type: in vivo; details: Rattus norvegicus, 96 h, after 4 days treatment with oestradiol 0.073 umole/kg, read-out: Dose which induces a significant decrease of the prolactine level (Test 10)
Protocol: 10. The dose which induces a significant decrease of the prolactine level after 4 days treatment with a dose of 0.073 umole/kg of oeastradiol, on three weeks earlier ovariectomised rats.
as §5, §4

[11] = Overall comparison with Nomifensine in the pharmacological tests; assay type: in vivo; details: all tests
Protocol: The pharmacological activity of the compounds of the present invention is determined by the following tests:
as §1, §5

[12] = read-out: ED, lowest i.p. dose which still decreases the spontaneous motility (Test 3, -)

| Structure (SMILES) | TI (Test 3), LD/ED quotient [1] | minimal effective dose [1, 12] | Quotient of the ED values of Columns 2 and 4 [2] | TI (Test 5), LD/ED quotient [3] | ED50 [3] | LD50 at 96 h [4] | TI (Test 4), LD/ED quotient [5] | ED50 [5] | minimal effective dose [6] | TI (Test 6), LD/ED quotient [7] | minimal effective dose [7] | TI (Test 2), LD/ED quotient [8] | ED50 [8] | minimal effective dose [9] | minimal effective dose [10] | also measured |
| --- | --- | --- | --- | --- | --- | --- | --- | --- | --- | --- | --- | --- | --- | --- | --- | --- |
| CN1Cc2c(NC(=O)CN3CCCC3)cccc2C(c2ccccc2)C1 (stereo not shown) [Compound A, 4-phenyl-2-methyl-8-pyrrolidino-acetylamino-1,2,3,4-tetrahydro-isoquinoline-dimaleate] | 3 | 206 µmol/kg | 1,4 | 15 | 43 µmol/kg | 653 µmol/kg | 11 | 62 µmol/kg | 89 µmol/kg | 8 | 86 µmol/kg | 8 | 86 µmol/kg | 5.2 µmol/kg | – | – |
| CC(C)NCCC(=O)Nc1cccc2c1CN(C)CC2c1ccccc1 (stereo not shown) [Compound B, 4-phenyl-8-[3'-isopropylamino-propionyl-amino]-2-methyl-1,2,3,4-tetrahydroisoquinoline-maleate] | 6 | 342 µmol/kg | 1,3 | 7 | 267 µmol/kg | 1920 µmol/kg | 6 | 321 µmol/kg | > 178 µmol/kg | 5 | 428 µmol/kg | 5 | 428 µmol/kg | 4.3 µmol/kg | 96 µmol/kg | – |
| CCNCC(=O)Nc1cccc2c1CN(C)CC2c1ccc(Cl)cc1 (stereo not shown) [Compound C, 8-ethylamino-acetyl-amino-4-p-chloro-phenyl-2-methyl-1,2,3,4-tetrahydroisoquinoline-maleate] | 16 | 42 µmol/kg | 1,0 | 49 | 14 µmol/kg | 686 µmol/kg | 13 | 51 µmol/kg | 68 µmol/kg | 62 | 11 µmol/kg | 13 | 53 µmol/kg | 1.1 µmol/kg | – | Activity compared with Nomifensine (in words) [11]: surpasses the activity of Nomifensine in three tests |
| CCCCNCC(=O)Nc1cccc2c1CN(C)CC2c1ccc(Cl)cc1 (stereo not shown) [Compound D, 8-butyl-amino-acetyl-amino-4-p-chloro-phenyl-2-methyl-1,2,3,4-tetrahydro-isoquinoline-maleate] | < 16 | – | 1,8 | 82 | 7.8 µmol/kg | 637 µmol/kg | 24 | 27 µmol/kg | 64 µmol/kg | 64 | 10 µmol/kg | 13 | 48 µmol/kg | 1 µmol/kg | 36 µmol/kg | minimal effective dose ([1]; read-out: ED, lowest i.p. dose which still increases or decreases the spontaneous motility (Test 3, no sign)): > 40 µmol/kg; Therapeutical index in the anti-reserpine test compared with Nomifensine (in words) ([7]; anti-reserpine test): more favourable therapeutical index |
| CCCCNC(=O)Nc1cccc2c1CN(C)CC2c1ccc(Cl)cc1 (stereo not shown) [Compound E, 8-n-butyl-carbamoyl-amino-4-p-chloro-phenyl-2-methyl-1,2,3,4-tetrahydro-isoquinoline-maleate] | > 66 | 31 µmol/kg | 2,7 | > 66 | 31 µmol/kg | > 2050 µmol/kg | > 23 | 90 µmol/kg | 275 µmol/kg | – | > 205 µmol/kg | > 8 | 246 µmol/kg | 6.1 µmol/kg | 143 µmol/kg | – |
| CCCCNC(=O)Nc1cccc2c1CN(C)CC2c1ccc(C)cc1 (stereo not shown) [Compound F, 2-methyl-8-n-butyl-carbamoyl-amino-4-p-tolyl-1,2,3,4-tetrahydro-isoquinoline-maleate] | > 60 | 43 µmol/kg | > 1,7 and 1.7 | > 80 | 32 µmol/kg | > 2570 µmol/kg | > 20 | 128 µmol/kg | 178 µmol/kg | > 30 | 86 µmol/kg | > 12 | > 214 µmol/kg | > 11 µmol/kg | 107 µmol/kg | – |
| CCCCNCC(=O)Nc1cccc2c1CN(C)CC2c1ccc(C)cc1 (stereo not shown) [Compound G, 8-butylamino-acetyl-amino-2-methyl-4-p-tolyl-1,2,3,4-tetrahydro-isoquinoline-maleate] | 66 | 10 µmol/kg | 0,4 | 133 | 5 µmol/kg | 664 µmol/kg | 9 | 71 µmol/kg | 108 µmol/kg | 32 | 21 µmol/kg | 23 | 29 µmol/kg | 2.1 µmol/kg | – | Antidepressant versus antiparkinson profile (in words) ([2]; from quotient ED2:ED4): stronger anti-dopamine, anti-parkinsone activity; Activity compared with Nomifensine (in words) [11]: very high activity; Therapeutical index (in words) [11]: good therapeutical index |
| CCNCC(=O)Nc1cccc2c1CN(C)CC2c1ccc(C)cc1 (stereo not shown) [Compound H, 8-ethylamino-acetyl-amino-2-methyl-4-p-tolyl-1,2,3,4-tetrahydro-isoquinoline maleate] | 32 | 22 µmol/kg | 0,3 | 59 | 12 µmol/kg | 706 µmol/kg | 7 | 99 µmol/kg | 183 µmol/kg | 16 | 44 µmol/kg | 21 | 33 µmol/kg | 2.2 µmol/kg | – | Therapeutical index (in words) [11]: good therapeutical index |
| CN1Cc2c(N)cccc2C(c2ccccc2)C1 (stereo not shown) [Nomifensine, 8-amino-4-phenyl-2-methyl-1,2,3,4-tetrahydro-isoquinoline, reference compound] | 40 | – | 1,6 | 268 | 4.2 µmol/kg | 1130 µmol/kg | 30 | 37 µmol/kg | 23 µmol/kg | 40 | 28 µmol/kg | 20 | 56 µmol/kg | 1.4 µmol/kg | 28 µmol/kg | Effect on spontaneous motility (in words) ([1]; mice): increases the spontaneous motility |

— patent publication US4537895A, “Isoquinoline derivatives” (EGYT Gyogyszervegyeszeti Gyar, priority 1982, dated 1985)
